{"source": "paper PMC5469273", "about": "“Discovery of Novel Small-Molecule Inhibitors of LIM Domain Kinase for Inhibiting HIV-1” (Journal of Virology, 2017)", "key": {"[1]": {"tested_on": "HIV-1(VSV G)", "type": "cell-based", "conditions": "100 μM"}, "[2]": {"target": "c-Src (Homo sapiens, UniProt P12931)", "test": "Kinase profiling (Reaction Biology): c-Src"}, "[3]": {"target": "ALK (Homo sapiens, UniProt Q9UM73)", "sequence (Q9UM73 19-1620)": "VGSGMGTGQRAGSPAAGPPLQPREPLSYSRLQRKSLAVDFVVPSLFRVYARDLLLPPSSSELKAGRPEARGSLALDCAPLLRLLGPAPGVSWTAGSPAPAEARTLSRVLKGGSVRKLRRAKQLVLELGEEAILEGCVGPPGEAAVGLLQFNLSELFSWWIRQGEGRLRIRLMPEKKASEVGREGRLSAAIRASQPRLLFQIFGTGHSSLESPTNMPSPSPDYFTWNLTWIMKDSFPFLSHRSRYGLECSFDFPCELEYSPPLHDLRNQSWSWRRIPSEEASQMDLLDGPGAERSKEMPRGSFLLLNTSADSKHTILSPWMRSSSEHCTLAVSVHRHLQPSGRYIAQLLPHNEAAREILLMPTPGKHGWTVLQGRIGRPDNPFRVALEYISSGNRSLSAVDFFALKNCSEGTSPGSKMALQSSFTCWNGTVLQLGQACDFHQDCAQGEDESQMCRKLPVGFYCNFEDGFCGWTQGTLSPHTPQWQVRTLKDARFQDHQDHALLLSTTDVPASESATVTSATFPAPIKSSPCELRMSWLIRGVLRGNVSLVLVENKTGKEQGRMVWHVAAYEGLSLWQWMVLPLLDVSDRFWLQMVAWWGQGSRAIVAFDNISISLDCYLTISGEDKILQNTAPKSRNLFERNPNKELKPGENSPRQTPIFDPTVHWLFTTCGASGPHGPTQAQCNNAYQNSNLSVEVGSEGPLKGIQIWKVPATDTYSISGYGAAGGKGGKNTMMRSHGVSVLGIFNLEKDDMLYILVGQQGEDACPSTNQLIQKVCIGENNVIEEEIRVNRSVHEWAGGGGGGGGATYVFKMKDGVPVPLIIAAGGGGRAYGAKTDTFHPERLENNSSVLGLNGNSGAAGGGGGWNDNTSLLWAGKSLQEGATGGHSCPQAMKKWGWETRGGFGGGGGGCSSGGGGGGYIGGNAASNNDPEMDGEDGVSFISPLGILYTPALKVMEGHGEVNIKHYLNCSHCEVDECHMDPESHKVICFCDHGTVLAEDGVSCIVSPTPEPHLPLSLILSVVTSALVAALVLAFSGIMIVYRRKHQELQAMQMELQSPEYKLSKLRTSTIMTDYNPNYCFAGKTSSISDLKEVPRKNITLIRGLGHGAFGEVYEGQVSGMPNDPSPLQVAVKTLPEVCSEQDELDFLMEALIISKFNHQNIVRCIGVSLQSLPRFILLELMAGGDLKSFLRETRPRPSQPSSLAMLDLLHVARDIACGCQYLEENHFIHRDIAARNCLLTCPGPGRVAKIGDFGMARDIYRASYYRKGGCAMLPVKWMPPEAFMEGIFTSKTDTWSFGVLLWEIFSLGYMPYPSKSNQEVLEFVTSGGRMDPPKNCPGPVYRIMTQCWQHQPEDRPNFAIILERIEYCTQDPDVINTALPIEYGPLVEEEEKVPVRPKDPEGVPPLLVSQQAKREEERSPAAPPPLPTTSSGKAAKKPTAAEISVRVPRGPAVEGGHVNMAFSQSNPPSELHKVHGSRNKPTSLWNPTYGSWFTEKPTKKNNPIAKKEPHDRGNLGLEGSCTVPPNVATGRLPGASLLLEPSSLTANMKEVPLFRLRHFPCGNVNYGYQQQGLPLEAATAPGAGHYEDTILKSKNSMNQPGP", "test": "Kinase profiling (Reaction Biology): ALK"}, "[4]": {"tested_on": "HIV DNA-transfected HEK293 cells", "type": "cell-based, HIV-1", "conditions": "different concentrations, 48 h"}, "[5]": {"tested_on": "Jurkat T cells", "test": "SDF-1-mediated chemotaxis assay (transwell)", "conditions": "Homo sapiens, 2 h, read-out: IC50, inhibition of Jurkat T cell chemotaxis, SDF-1 40 ng/ml, 2 h, transwell"}, "[6]": {"target": "CAMK2b (Homo sapiens, UniProt Q13554)", "sequence (Q13554 whole entry)": "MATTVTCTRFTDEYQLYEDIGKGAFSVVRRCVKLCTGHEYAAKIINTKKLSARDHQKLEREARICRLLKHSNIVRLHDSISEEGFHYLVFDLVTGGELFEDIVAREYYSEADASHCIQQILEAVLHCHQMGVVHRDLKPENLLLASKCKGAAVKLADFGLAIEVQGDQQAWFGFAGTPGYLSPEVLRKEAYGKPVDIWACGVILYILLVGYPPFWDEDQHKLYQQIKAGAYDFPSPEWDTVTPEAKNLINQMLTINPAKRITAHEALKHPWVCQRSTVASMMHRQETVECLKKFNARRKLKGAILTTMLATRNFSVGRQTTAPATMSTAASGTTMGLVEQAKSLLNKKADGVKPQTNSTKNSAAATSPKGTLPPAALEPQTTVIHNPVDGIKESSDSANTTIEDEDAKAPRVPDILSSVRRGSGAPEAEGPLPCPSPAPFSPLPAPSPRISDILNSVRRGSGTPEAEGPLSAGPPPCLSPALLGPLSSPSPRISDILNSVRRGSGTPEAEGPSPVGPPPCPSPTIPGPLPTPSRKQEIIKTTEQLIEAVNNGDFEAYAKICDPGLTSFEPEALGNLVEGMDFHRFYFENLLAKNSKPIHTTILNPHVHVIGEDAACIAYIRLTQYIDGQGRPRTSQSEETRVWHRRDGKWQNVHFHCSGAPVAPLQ", "test": "Kinase profiling (Reaction Biology): CAMK2b"}, "[7]": {"target": "DAPK1 (Homo sapiens, UniProt P53355)", "sequence (P53355 whole entry)": "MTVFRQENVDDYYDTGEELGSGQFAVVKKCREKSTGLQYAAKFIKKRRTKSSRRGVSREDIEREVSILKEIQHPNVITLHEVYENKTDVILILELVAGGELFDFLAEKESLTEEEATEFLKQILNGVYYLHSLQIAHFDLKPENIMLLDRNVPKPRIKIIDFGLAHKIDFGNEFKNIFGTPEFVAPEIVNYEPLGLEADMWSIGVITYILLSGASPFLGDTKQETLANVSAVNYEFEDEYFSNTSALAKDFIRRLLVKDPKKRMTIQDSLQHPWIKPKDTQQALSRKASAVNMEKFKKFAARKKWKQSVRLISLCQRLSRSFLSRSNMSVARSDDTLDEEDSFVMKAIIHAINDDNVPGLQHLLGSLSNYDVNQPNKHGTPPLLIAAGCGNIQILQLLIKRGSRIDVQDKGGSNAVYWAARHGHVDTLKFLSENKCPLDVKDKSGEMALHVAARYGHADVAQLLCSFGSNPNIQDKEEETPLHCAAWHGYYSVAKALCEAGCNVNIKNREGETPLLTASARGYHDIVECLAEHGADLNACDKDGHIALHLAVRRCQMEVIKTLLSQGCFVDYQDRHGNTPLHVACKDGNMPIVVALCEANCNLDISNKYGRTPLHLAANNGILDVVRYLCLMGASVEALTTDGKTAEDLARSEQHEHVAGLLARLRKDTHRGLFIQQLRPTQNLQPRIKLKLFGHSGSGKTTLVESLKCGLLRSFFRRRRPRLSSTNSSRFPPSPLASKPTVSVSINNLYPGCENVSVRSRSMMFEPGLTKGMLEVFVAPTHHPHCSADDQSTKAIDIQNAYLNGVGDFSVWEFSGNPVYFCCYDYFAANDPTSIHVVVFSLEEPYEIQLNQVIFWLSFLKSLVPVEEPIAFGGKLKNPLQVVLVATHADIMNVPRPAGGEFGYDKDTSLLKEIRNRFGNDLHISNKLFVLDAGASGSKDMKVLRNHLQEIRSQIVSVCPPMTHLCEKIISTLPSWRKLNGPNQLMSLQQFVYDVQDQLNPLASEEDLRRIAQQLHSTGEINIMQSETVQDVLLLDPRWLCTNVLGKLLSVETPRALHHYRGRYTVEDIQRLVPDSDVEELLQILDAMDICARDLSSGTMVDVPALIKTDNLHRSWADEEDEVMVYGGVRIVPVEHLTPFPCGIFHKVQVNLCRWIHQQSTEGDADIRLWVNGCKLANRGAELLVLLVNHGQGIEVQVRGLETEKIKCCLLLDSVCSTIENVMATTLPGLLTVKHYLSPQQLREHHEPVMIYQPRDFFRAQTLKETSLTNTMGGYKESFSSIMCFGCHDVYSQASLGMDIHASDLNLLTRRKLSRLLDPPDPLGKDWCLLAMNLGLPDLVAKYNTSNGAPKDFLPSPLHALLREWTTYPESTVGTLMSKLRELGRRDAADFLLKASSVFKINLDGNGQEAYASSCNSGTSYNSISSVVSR", "test": "Kinase profiling (Reaction Biology): DAPK1"}, "[8]": {"target": "MEK1 (Homo sapiens, UniProt Q02750)", "sequence (Q02750 whole entry)": "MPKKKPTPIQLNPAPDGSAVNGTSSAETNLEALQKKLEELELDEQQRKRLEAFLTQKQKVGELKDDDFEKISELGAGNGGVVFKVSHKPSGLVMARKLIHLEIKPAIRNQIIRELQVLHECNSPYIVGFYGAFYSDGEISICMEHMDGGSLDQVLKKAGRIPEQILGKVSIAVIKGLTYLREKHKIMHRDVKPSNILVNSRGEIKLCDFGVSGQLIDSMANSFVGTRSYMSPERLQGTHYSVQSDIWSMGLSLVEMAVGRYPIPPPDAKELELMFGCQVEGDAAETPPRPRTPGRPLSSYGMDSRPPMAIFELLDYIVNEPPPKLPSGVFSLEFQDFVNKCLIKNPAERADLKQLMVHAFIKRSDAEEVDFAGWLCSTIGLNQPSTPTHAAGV", "test": "Kinase profiling (Reaction Biology): MEK1"}, "[9]": {"target": "FGFR1 (Homo sapiens, UniProt P11362)", "sequence (P11362 22-822)": "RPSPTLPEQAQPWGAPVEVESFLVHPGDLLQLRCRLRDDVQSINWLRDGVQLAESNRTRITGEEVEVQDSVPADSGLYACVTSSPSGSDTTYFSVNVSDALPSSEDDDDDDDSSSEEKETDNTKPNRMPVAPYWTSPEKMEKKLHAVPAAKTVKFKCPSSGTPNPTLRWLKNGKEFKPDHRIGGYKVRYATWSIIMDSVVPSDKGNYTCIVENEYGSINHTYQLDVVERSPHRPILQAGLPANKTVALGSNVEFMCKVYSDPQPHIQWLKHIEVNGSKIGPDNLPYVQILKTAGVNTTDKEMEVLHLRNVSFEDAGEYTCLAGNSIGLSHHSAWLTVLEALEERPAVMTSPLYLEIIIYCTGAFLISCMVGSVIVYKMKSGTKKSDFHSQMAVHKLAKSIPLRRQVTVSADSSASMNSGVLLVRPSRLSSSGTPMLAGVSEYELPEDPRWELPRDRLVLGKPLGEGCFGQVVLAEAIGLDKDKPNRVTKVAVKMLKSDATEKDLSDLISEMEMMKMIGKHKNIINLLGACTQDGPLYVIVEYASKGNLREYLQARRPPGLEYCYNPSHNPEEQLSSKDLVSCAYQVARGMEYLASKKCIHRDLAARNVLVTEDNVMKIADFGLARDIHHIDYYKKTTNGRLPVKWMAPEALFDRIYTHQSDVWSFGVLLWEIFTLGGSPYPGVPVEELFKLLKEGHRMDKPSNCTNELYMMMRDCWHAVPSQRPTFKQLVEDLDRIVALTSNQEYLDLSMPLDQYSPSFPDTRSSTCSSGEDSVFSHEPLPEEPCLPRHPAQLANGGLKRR", "test": "Kinase profiling (Reaction Biology): FGFR1"}}, "data": [{"smiles": "COC(=O)c1ccc2[nH]c(C3CCN(c4ncnc5[nH]cc(Cl)c45)CC3)nc2c1", "note": "[Compound R10015, Methyl 2-(1-(5-chloro-7H-pyrrolo[2,3-d]pyrimidin-4-yl)piperidin-4-yl)-1H-benzo[d]imidazole-5-carboxylate]", "values": [{"measurement": "inhibition of early steps of VSV G-pseudotyped HIV", "setting": "[1]", "result": "minimally inhibited"}, {"measurement": "activity at 1 µM", "setting": "[2]", "result": 92.4, "unit": "%"}, {"measurement": "activity at 1 µM", "setting": "[3]", "result": 95.5, "unit": "%"}, {"measurement": "virion release from HIV DNA-transfected HEK293 cells", "setting": "[4]", "result": "inhibited"}, {"measurement": "IC50", "setting": "[5]", "result": "~10", "unit": "µM"}, {"measurement": "activity at 1 µM", "setting": "[6]", "result": 90.8, "unit": "%"}, {"measurement": "activity at 1 µM", "setting": "[7]", "result": 87.8, "unit": "%"}, {"measurement": "activity at 1 µM", "setting": "[8]", "result": 75.6, "unit": "%"}, {"measurement": "activity at 1 µM", "setting": "[9]", "result": 86.5, "unit": "%"}]}]}
